In article PMC7529893, “Structural basis for substrate recognition and chemical inhibition of oncogenic MAGE ubiquitin ligases” (Nature Communications, 2020):

Target: T1, MAGE-A11:PCF11 interaction (GST-MAGE-A11 and FAM-PCF11_4) (Homo sapiens, UniProt P43364)
T1 construct: GST-MAGE-A11 MHD (human MAGE-A11 MHD amino acid 218-429); made in house; host or cells: E. coli BL21(DE3)
T1 sequence (P43364 218-429): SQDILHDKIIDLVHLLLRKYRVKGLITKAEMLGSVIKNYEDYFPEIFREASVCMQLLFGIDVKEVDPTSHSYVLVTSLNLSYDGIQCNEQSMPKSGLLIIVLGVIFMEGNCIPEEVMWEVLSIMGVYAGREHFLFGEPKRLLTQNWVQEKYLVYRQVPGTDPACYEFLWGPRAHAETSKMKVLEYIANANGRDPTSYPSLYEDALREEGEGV
Assay: TR-FRET primary / single point screen at 15 µM
Type: binding
Settings: single point TR-FRET screening of 797 quinoline compounds against MAGE-A11:PCF11
Method in brief: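 Single-point screen at 15 µM final compound in 50 mM Tris pH 7.5, 20 mM MgCl2, 0.1 mg/ml BSA, 1 mM DTT, with 200 nM FAM-PCF11_4, 5 nM Tb-anti-GST and 5 nM GST-MAGE-A11. After 90 min at room temperature, the 520/490 nm TR-FRET ratio (340 nm excitation) gave %Inhibition against no-MAGE-A11 and DMSO controls.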

percent inhibition (TR-FRET) | Compound
-338.862 | COc1ccc(CNCCCNc2c3ccc(Cl)cc3nc3ccc(OC)cc23)cc1 [SJ000523033]
-187.09 | CCCN(CCCNc1c2ccc(Cl)cc2nc2ccc(OC)cc12)Cc1c(F)cccc1OC [SJ000522733]
6.683 | COc1ccc(CN(CCCCNc2ccnc3cc(Cl)ccc23)Cc2ccccc2)cc1 [SJ000522724]
11.7451 | COc1ccc(CN2CCC(Nc3ccnc4cc(Cl)ccc34)CC2)cc1OC [SJ000523103]
-118.624 | CCCN(CCCNc1c2ccc(Cl)cc2nc2ccc(OC)cc12)Cc1ccc(C(=O)OC)cc1 [SJ000523018]
-340.253 | COc1ccc2nc3cc(Cl)ccc3c(NCCCNCCC(C)c3ccccc3)c2c1 (stereo not drawn) [SJ000523027]
-252.354 | COc1ccc2nc3cc(Cl)ccc3c(NCCCNCc3cn(C)c4ccccc34)c2c1 [SJ000520987]
-127.026 | CCCN(CCCNc1c2ccc(Cl)cc2nc2ccc(OC)cc12)Cc1scnc1C [SJ000522976]
20.6486 | Clc1ccc2c(NC3CCN(CCCc4ccccc4)CC3)ccnc2c1 [SJ000523104]
-366.222 | COc1ccc2nc3cc(Cl)ccc3c(NCCCNCc3cccc(F)c3)c2c1 [SJ000521004]

Further lines, the compound ahead of its results:

Compound | percent inhibition (TR-FRET)
CCN(CCO)CCCC(C)Nc1ccnc2cc(Cl)ccc12 (stereo not drawn) [SJ000286026] | 3.702
Cc1ccc2ncc(S(=O)(=O)c3ccccc3)c(N3CCN(C)CC3)c2c1 [SJ000083945] | -8.419
COc1ccc(N2CCN(c3c(S(=O)(=O)c4ccc(Cl)cc4)cnc4ccc(C)cc34)CC2)cc1 [SJ000117075] | -3.122
COc1ccc2nc3cc(Cl)ccc3c(NCCCNCC3CCCCC3)c2c1 [SJ000361090] | -411.15
CCCN(CCCNc1c2ccc(Cl)cc2nc2ccc(OC)cc12)Cc1ccccc1F [SJ000520944] | -118.554
Clc1ccc2c(NCCCCN(Cc3ccccc3)Cc3ccc4[nH]ccc4c3)ccnc2c1 [SJ000520434] | 69.4381
CCOC(=O)c1cnc2c(C)c(Cl)ccc2c1NCCN(C)C [SJ000037393] | -1.333
Cc1ccc2ncc(S(=O)(=O)c3ccccc3)c(N3CCN(c4ccccc4F)CC3)c2c1 [SJ000315092] | -33.4837
CCOc1ccc2ncc(S(=O)(=O)c3ccc(C)cc3)c(N3CCN(c4ccccc4F)CC3)c2c1 [SJ000117077] | 5.159
Clc1ccc2c(N3CCN(CCCN4CCN(c5ccnc6cc(Cl)ccc56)CC4)CC3)ccnc2c1 [SJ000518980] | -2.9894
COc1ccc2ncc(S(=O)(=O)c3ccc(C)c(C)c3)c(N3CCN(c4ccccc4F)CC3)c2c1 [SJ000117078] | -8.289
CCN1CCN(c2c(S(=O)(=O)c3ccccc3)cnc3ccc(Cl)cc23)CC1 [SJ000083960] | 4.43
O=S(=O)(c1ccccc1)c1cnc2ccc(F)cc2c1N1CCN(c2ccccc2)CC1 [SJ000083976] | -31.1045
COc1cc2ncc(S(=O)(=O)c3ccc(Cl)cc3)c(N3CCN(C)CC3)c2cc1OC [SJ000083953] | 4.674
CCOC(=O)c1cnc2ccc(C)cc2c1NCCN1CCOCC1 [SJ000027268] | -0.3915
CCCN(CCCNc1c2ccc(Cl)cc2nc2ccc(OC)cc12)Cc1ccc2c(c1)OCO2 [SJ000520940] | -193.541
CCOC(=O)c1cnc2c(C)cc(C)cc2c1NCCN1CCOCC1 [SJ000172983] | 8.869
COC(=O)CCCCCN(CCCCNc1ccnc2cc(Cl)ccc12)Cc1ccccc1 [SJ000520432] | 23.5757
CCCN(CCC)CCCNc1c2ccc(Cl)cc2nc2ccc(OC)cc12 [SJ000520917] | -288.202
Cc1ccc(S(=O)(=O)c2cnc3ccccc3c2N2CCN(c3cc(C)ccc3C)CC2)cc1 [SJ000117084] | 2.443
O=S(=O)(c1ccc(F)cc1)N1CCN(c2ccnc3cc(Cl)ccc23)CC1 [SJ000203833] | -50.6426
Clc1ccc2c(NC3CCN(CC4CC4)CC3)ccnc2c1 [SJ000357481] | 3.973
COc1ccccc1N1CCN(c2c(S(=O)(=O)c3ccccc3)cnc3ccc(C)cc23)CC1 [SJ000315081] | -19.5512
Cc1cc(NC(=O)CN2CCN(C)CC2)c2ccccc2n1 [SJ000111680] | 4.6472
Clc1ccc2c(NCCCCN(Cc3ccccc3)Cc3ccsc3)ccnc2c1 [SJ000312689] | 16.2962

Same assay, conditions: single point TR-FRET screening of quinoline compounds against MAGE-A11:PCF11; 15 µM

percent inhibition (TR-FRET) | Compound
11.85 | CCCN(CCCNc1ccnc2cc(Cl)ccc12)Cc1scnc1C [SJ000523005]
21.7574 | CCCN(CCCNc1ccnc2cc(C(F)(F)F)ccc12)Cc1ccc(OC)c(F)c1 [SJ000521013]
13.3074 | CCCN(CCCNc1ccnc2cc(Cl)ccc12)Cc1cccnc1Br [SJ000523006]
28.0024 | CCCN(CCCNc1ccnc2cc(C(F)(F)F)ccc12)CCCc1ccccc1 [SJ000523080]
30.1342 | Clc1ccc2c(NCCCNCc3cc4ccccc4s3)ccnc2c1 [SJ000521032]
20.7933 | CCCN(CCCNc1ccnc2cc(Cl)ccc12)Cc1ccc(F)cc1 [SJ000522759]
20.1719 | CCCN(CCCNc1ccnc2cc(C(F)(F)F)ccc12)Cc1cccc(C)c1 [SJ000523076]
-94.5429 | CCCN(CCCNc1c2ccc(Cl)cc2nc2ccc(OC)cc12)Cc1cccc(C#N)c1 [SJ000522739]
23.0877 | CCCN(CCCNc1c2ccc(Cl)cc2nc2ccc(OC)cc12)Cc1c(F)cccc1C(F)(F)F [SJ000522968]
41.8599 | FC(F)(F)c1ccc2c(NCCCNCc3csc4ccccc34)ccnc2c1 [SJ000521061]
33.3803 | Clc1ccc2c(NCCCNCc3csc4ccccc34)ccnc2c1 [SJ000521033]
19.5869 | COC(=O)CCCCCNCCCNc1ccnc2cc(C(F)(F)F)ccc12 [SJ000521044]
9.001 | Clc1ccc2c(NCCCN(Cc3ccccc3)Cc3ccc4c(c3)OCO4)ccnc2c1 [SJ000522719]
15.3375 | Clc1ccc2c(NCCCNCc3ccc(Br)s3)ccnc2c1 [SJ000575193]
16.3588 | CCCN(CCCNc1c2ccc(Cl)cc2nc2ccc(OC)cc12)Cc1ccc(Cl)c(C(F)(F)F)c1 [SJ000522974]
15.5598 | FC(F)(F)c1ccc2c(NCCCNCC3CCOC3)ccnc2c1 (stereo not drawn) [SJ000521065]
4.828 | CCCN(CCCNc1ccnc2cc(Cl)ccc12)Cc1cncc(Br)c1 [SJ000523004]

The next lines start with the compound.

Compound | percent inhibition (TR-FRET)
c1ccc(Oc2ccc3c(NCCCNCc4ccco4)ccnc3c2)cc1 [SJ000311206] | 14.5885
CCCN(CCC)CCCNc1ccnc2cc(C(F)(F)F)ccc12 [SJ000361250] | 15.6779
CCCN(CCCNc1ccnc2cc(Cl)ccc12)Cc1ccco1 [SJ000357458] | 3.483
Clc1ccc2c(NCCCN(Cc3ccccc3)Cc3ccc(Br)o3)ccnc2c1 [SJ000312671] | -1.797
CC(C)CCN(CCCNc1ccnc2cc(Cl)ccc12)Cc1ccccc1 [SJ000311183] | 2.673
Clc1ccc2c(NCCCN(Cc3ccccc3)Cc3cccnc3Br)ccnc2c1 [SJ000520462] | 9.715
CCCN(CCCNc1ccnc2cc(C(F)(F)F)ccc12)Cc1ccccc1OC(F)(F)F [SJ000520470] | 5.934
CCCN(CCCNc1ccnc2cc(C(F)(F)F)ccc12)Cc1cccs1 [SJ000361253] | 19.5346
Fc1ccc(-c2ccc3c(NCCCNCc4ccco4)ccnc3c2)cc1 [SJ000311238] | 27.4287
CCCN(CCCNc1ccnc2cc(C(F)(F)F)ccc12)Cc1cc(OC)ccc1O [SJ000361263] | 25.2582
CCOC(=O)c1cnc2c(CC)cccc2c1NCCCN1CCOCC1 [SJ000185196] | -4.499
CCCN(CCCNc1ccnc2cc(C(F)(F)F)ccc12)Cc1cc2ccccc2o1 [SJ000520479] | -20.4102
CCCN(CCCNc1ccnc2cc(Cl)ccc12)CCCSC [SJ000357576] | 7.824
O=[N+]([O-])c1ccccc1CN(CCCNc1ccnc2cc(Cl)ccc12)Cc1ccccc1 [SJ000361177] | 16.421
